According to ChEMBL document CHEMBL5226325, “Optimization of a Screening Hit toward M2912, an Oral Tankyrase Inhibitor with Antitumor Activity in Colorectal Cancer Models” (J Med Chem, 2021):
Calls of active or inactive are those of the source. The calls are words filed in the database; no cut-off is given here.

Assays:
[1] = Modulation of Wnt/beta-catenin signaling pathway in human DLD-1 cells assessed as induction of AXIN2 accumulation incubated for 24 hrs by ELISA; type: cell-based; settings: DLD-1, 24 h
[2] = biological target: T1, Poly [ADP-ribose] polymerase tankyrase-2 (Homo sapiens, UniProt Q9H2K2); test: Inhibition of TNKS2 (unknown origin) using biotinylated NAD as substrate assessed as inhibition of autoPARsylation activity incubated for 1 hr by ELISA
T1 sequence (Q9H2K2 whole entry): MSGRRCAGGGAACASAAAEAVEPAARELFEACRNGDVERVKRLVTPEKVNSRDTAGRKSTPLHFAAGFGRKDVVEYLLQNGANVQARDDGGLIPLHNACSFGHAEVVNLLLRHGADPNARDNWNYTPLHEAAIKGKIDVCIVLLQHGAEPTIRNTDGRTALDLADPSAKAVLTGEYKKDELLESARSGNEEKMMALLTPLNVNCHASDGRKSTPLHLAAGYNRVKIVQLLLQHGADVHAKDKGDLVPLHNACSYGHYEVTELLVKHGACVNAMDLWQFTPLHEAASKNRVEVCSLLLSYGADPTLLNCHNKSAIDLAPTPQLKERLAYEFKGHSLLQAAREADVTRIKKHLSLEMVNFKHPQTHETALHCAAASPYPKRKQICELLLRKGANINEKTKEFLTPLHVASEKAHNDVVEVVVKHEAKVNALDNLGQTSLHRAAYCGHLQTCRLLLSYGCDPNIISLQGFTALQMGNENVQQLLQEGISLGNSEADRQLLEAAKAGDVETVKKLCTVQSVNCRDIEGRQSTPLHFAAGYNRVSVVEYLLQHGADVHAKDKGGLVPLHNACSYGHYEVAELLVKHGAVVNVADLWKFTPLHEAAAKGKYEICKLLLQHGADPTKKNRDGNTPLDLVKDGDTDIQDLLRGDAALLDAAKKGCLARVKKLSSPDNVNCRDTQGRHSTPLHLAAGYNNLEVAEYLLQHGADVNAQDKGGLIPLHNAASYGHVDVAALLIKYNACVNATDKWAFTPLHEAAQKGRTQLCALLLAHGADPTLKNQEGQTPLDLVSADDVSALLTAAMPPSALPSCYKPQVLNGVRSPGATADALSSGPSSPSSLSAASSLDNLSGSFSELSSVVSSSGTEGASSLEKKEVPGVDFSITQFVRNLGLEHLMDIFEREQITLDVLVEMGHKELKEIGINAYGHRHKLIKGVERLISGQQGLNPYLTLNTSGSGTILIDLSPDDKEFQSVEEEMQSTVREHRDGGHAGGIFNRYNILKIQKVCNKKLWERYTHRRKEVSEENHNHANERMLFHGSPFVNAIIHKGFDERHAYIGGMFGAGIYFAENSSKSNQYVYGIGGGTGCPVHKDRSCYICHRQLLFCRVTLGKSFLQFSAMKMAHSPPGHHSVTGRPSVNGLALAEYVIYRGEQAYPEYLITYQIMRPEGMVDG

[3] = biological target: T1, Poly [ADP-ribose] polymerase tankyrase-2; test: Inhibition of TNKS2 (unknown origin)
[4] = biological target: Protein mono-ADP-ribosyltransferase PARP3 (Homo sapiens, UniProt Q9Y6F1); test: Inhibition of N-terminal GST-fused human recombinant PARP3 (2 to 540 residues) expressed in Sf9 insect cells by chemiluminescence assay
Protein mono-ADP-ribosyltransferase PARP3, sequence (Q9Y6F1 whole entry, the tested form may be a part): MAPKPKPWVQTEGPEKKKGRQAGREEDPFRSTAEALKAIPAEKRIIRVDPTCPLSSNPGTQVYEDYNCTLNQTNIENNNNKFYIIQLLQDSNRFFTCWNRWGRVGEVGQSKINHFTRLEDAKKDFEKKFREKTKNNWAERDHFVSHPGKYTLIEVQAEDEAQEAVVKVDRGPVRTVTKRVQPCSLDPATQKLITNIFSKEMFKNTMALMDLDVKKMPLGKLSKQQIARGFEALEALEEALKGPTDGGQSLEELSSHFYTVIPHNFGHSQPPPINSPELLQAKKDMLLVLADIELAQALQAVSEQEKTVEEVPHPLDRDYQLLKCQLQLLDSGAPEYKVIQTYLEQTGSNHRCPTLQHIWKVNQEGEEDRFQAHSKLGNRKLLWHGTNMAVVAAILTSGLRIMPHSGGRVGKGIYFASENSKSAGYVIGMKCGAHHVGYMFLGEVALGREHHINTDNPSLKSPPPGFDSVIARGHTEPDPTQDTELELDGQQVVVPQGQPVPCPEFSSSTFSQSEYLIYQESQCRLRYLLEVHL

[5] = biological target: Protein mono-ADP-ribosyltransferase TIPARP (Homo sapiens, UniProt Q7Z3E1); test: Inhibition of N-terminal FLAG-tagged human recombinant PARP7 (400 to 657 residues) expressed in Sf9 insect cells by chemiluminescence assay
[6] = biological target: Protein mono-ADP-ribosyltransferase PARP8 (Homo sapiens, UniProt Q8N3A8); test: Inhibition of human PARP8 by chemiluminescence assay
Protein mono-ADP-ribosyltransferase PARP8, sequence (Q8N3A8 whole entry, the tested form may be a part): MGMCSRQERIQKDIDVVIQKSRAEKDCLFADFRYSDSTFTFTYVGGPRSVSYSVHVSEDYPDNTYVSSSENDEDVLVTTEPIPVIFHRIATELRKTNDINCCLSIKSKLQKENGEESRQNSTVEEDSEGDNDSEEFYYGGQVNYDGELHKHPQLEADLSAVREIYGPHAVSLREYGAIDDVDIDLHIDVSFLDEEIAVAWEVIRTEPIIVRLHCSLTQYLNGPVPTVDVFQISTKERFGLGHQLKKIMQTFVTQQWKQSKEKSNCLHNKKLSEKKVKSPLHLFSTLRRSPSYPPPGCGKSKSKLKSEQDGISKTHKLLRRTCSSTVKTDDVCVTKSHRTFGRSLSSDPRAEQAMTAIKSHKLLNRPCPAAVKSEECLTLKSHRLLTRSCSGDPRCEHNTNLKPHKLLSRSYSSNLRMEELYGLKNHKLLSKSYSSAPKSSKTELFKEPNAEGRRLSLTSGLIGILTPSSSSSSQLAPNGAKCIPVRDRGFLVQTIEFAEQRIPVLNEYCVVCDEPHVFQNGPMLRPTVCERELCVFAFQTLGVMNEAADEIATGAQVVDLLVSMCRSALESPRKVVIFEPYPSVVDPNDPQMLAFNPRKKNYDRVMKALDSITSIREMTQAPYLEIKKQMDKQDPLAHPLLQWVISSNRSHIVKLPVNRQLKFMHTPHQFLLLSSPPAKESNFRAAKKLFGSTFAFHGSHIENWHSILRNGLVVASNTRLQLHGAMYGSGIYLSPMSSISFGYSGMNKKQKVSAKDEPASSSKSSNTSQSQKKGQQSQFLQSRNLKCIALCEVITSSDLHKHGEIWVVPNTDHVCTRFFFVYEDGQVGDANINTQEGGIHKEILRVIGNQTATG

[7] = biological target: Protein mono-ADP-ribosyltransferase PARP11 (Homo sapiens, UniProt Q9NR21); test: Inhibition of N-terminal GST-tagged/C-terminal 6xHis-tagged human recombinant PARP11 (8 to 338 residues) expressed in Sf9 insect cells by chemiluminescence assay
[8] = biological target: Protein mono-ADP-ribosyltransferase PARP14 (Homo sapiens, UniProt Q460N5); test: Inhibition of N-terminal GST/6xHis/TEV-tagged human recombinant PARP14 (1470 to 1801 residues) expressed in Sf9 insect cells by chemiluminescence assay
Protein mono-ADP-ribosyltransferase PARP14, sequence (Q460N5 whole entry, the tested form may be a part): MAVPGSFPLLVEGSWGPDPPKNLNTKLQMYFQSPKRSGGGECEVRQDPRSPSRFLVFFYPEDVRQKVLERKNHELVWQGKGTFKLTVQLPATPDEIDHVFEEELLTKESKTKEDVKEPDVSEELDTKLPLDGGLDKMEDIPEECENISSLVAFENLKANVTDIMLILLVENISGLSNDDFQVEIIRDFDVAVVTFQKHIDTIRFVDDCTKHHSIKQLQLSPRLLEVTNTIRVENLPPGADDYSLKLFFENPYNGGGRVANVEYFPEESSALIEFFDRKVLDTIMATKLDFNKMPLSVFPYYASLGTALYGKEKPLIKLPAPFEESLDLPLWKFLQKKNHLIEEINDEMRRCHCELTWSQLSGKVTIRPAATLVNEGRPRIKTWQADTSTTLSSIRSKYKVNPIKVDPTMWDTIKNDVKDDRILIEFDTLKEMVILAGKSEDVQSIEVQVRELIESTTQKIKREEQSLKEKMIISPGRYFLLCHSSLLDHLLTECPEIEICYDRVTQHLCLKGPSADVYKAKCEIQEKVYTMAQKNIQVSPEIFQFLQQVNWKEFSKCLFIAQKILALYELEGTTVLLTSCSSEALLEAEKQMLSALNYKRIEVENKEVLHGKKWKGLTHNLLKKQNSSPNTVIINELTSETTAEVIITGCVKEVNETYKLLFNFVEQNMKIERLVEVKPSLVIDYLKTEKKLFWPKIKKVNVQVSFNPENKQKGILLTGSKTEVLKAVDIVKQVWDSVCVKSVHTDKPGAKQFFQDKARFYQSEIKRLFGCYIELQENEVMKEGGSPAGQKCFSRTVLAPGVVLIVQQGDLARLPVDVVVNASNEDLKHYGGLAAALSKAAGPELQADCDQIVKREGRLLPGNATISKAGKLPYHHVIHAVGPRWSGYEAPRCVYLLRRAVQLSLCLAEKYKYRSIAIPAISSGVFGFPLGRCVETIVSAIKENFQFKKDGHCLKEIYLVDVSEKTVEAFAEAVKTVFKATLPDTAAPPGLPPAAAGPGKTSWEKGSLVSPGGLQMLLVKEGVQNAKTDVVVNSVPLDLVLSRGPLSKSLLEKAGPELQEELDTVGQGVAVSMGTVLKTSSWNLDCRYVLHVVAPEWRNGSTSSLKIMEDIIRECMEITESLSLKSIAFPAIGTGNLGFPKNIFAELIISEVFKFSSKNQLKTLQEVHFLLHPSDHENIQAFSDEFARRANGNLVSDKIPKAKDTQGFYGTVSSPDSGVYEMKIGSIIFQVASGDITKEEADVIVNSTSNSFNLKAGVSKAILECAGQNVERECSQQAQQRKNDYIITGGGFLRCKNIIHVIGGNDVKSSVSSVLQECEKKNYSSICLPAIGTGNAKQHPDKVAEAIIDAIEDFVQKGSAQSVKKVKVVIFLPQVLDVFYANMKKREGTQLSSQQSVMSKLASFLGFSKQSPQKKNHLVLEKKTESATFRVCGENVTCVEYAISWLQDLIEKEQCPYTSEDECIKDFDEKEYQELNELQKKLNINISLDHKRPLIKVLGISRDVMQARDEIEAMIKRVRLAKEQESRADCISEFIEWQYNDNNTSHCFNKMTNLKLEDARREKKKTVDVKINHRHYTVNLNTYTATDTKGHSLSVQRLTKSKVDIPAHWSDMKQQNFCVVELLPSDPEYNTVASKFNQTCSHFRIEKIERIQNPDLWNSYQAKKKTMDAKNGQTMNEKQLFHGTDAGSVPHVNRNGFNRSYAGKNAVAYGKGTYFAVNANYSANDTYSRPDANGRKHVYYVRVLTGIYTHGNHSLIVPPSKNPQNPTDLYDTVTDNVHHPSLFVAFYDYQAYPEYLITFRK

[9] = biological target: Protein mono-ADP-ribosyltransferase PARP15 (Homo sapiens, UniProt Q460N3); test: Inhibition of N-terminal GST-tagged human recombinant PARP15 (221 to 444 residues) expressed in Escherichia coli by chemiluminescence assay
DLD-1 = test: Cytotoxicity against human DLD-1 cells assessed as reduction in cell growth at 0.01 to 10 uM incubated for 14 days by resazurin dye based assay; type: functional; settings: dose 0.01-10 µM, time 14.0 day
[10] = biological target: Sodium-dependent dopamine transporter (Homo sapiens, UniProt Q01959); test: Inhibition of dopamine transporter (unknown origin); type: toxicity
Adenosine receptor A3 = Adenosine receptor A3 (Homo sapiens, UniProt P0DMS8); test: Inhibition of A3 adenosine receptor (unknown origin); type: toxicity
Adenosine receptor A3, sequence (P0DMS8 whole entry): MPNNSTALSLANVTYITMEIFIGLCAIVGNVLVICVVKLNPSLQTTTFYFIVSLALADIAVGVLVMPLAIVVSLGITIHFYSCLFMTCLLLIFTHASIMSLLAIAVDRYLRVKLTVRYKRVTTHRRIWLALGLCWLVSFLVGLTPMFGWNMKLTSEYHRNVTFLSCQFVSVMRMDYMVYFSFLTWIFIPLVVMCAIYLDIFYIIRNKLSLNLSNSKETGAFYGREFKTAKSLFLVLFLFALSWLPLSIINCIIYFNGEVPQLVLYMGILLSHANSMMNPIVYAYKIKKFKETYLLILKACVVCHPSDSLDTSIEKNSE

CYP450 = CYP450 (Homo sapiens, UniProt P04798+P05177+P05181+P08684+P10632+P10635+P11509+P11712+P13584+P20813+P20815+P20853+P24462+P24903+P33260+P33261+P51589+P78329+P98187+Q02928+Q08477+Q16678+Q16696+Q5TCH4+Q6VVX0+Q7Z449+Q8TAV3+Q96SQ9+Q9HB55); test: Inhibition of CYP450 (unknown origin); type: ADME, protein assay
[11] = Unbound fraction in mouse plasma; type: ADME, cell-free
[12] = Unbound fraction in rat plasma; type: ADME, cell-free
[13] = Unbound fraction in dog plasma; type: ADME, cell-free, Canis lupus familiaris
[14] = Unbound fraction in human plasma; type: ADME, cell-free
[15] = Volume of distribution at steady state in dog; type: ADME, Canis lupus familiaris; settings: in vivo, read-out: Vdss
[16] = Hepatic blood flow in mouse; type: ADME, organism-based
[17] = Hepatic blood flow in rat; type: ADME
[18] = Hepatic blood flow in dog; type: ADME, Canis lupus familiaris
[19] = Half life in rat; type: ADME; settings: in vivo
[20] = Half life in dog; type: ADME, Canis lupus familiaris; settings: in vivo
[21] = Oral bioavailability in mouse; type: ADME, organism-based; settings: in vivo
[22] = Oral bioavailability in monkey; type: ADME, organism-based, Macaca mulatta; settings: rhesus monkey, in vivo
[23] = In vivo inhibition of Wnt pathway in Hsd athymic nude mouse xenografted with human DLD1 cells assessed as increase in axin2 protein level in tumor at 10 to 30 mg/kg, po administered as single dose and measured after 2 to 8 hrs; type: functional, organism-based; settings: DLD-1, dose 10-30 mg/kg, time 2-8 hrs
HT55 = test: Antitumor activity against human HT55 cells xenografted in CD-1 nude mouse assessed as tumor growth inhibition at 20 mg/kg, po, administered twice daily via gavage and measured twice weekly; type: functional, organism-based
[24] = Toxicity in mouse assessed as histopathological changes in gastrointestinal tract at 50 mg/kg, po administered twice daily via gavage; type: organism-based; settings: in vivo
[25] = biological target: Poly [ADP-ribose] polymerase tankyrase-1 (Homo sapiens) (UniProt O95271); test: Inhibition of tankyrase-mediated auto-PARsylation in human DLD-1 cells assessed as increase in tankyrase accumulation incubated for 24 hrs; type: cell-based
Poly [ADP-ribose] polymerase tankyrase-1 (Homo sapiens), sequence (O95271 whole entry): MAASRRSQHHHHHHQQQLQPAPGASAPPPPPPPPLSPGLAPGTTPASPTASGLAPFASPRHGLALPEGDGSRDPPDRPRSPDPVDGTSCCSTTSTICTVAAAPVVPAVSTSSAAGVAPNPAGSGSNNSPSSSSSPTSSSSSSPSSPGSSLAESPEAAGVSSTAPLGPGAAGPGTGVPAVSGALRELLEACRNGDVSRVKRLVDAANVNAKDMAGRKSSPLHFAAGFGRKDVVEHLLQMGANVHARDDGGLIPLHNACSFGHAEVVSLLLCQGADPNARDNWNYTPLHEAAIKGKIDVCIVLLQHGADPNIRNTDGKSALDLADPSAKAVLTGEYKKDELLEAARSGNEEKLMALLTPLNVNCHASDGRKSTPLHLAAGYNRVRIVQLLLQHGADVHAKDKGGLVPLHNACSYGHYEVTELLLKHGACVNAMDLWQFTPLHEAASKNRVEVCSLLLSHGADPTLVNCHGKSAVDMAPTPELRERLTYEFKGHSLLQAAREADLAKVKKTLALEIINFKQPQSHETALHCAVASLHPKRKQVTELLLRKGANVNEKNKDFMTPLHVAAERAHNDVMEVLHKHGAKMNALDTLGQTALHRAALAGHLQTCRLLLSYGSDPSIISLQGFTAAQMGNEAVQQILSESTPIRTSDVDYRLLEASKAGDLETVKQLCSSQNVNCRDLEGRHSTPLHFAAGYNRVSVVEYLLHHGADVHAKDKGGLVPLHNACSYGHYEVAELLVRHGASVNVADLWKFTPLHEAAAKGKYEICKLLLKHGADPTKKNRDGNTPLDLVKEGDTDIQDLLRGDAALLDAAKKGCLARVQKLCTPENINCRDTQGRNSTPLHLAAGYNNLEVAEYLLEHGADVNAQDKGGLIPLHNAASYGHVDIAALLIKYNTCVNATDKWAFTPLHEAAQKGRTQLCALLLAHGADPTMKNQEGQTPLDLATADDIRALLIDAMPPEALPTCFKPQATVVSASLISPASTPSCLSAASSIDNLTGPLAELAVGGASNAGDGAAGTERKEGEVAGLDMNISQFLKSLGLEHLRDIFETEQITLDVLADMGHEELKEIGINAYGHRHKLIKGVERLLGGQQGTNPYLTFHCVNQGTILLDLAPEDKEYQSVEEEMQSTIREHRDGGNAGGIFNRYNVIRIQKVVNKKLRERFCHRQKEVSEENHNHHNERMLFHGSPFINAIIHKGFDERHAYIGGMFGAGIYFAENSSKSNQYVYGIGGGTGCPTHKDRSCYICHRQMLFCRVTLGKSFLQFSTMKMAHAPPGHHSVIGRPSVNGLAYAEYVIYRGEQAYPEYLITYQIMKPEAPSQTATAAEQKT

Cc1ccc2c(=O)[nH]c(-c3ccc(C(C)(C)O)cc3)cn12
EC50 [1]: 16 nM
IC50 [2]: 0.9 nM
IC50 [3]: 1.4 nM
IC50 [4]: 110 nM
IC50 [5]: 330 nM
IC50 [6]: 1300 nM
IC50 [7]: 67 nM
IC50 [8]: > 10000 nM
IC50 [9]: > 10000 nM
Activity (DLD-1): inactive
IC50 [10]: 19000 nM
IC50 (Adenosine receptor A3): 10000 nM
IC50 (CYP450): > 50000 nM
fraction unbound [11]: 0.16
fraction unbound [12]: 0.13
fraction unbound [13]: 0.14
fraction unbound [14]: 0.096
Vd [15]: 2.17 L/kg
QH [16]: 50%
QH [17]: 56%
QH [18]: 130%
half-life [19]: 20.4 min
half-life [20]: 35.6 min
bioavailability [21]: 77%
bioavailability [22]: 6.7%
inhibition [23]: Active
Activity (HT55): Active
Activity [24]: Toxic
inhibition [25]: Active
